ChEMBL document CHEMBL4619799, “Mechanistic Insight into Antiretroviral Potency of 2'-Deoxy-2'-β-fluoro-4'-azidocytidine (FNC) with a Long-Lasting Effect on HIV-1 Prevention” (J Med Chem, 2020)
Active and inactive are the calls of the source. No cut-off for these calls is given here. Peptide text beside a SMILES is read from it. * marks the point of attachment. Cbz = O=C(OCc1ccccc1)*

Key:
[1] = tested on: Human immunodeficiency virus 1; test: Antiviral activity against VSVG pseudotyped HIV1 infected in HEK293 cells preincubated for 3 hrs followed by compound washout and subsequent compound redosing and measured after 72 hrs by luciferase reporter gene based assay; assay type: functional, organism-based; conditions: Human immunodeficiency virus 1, HEK293
[2] = Cytotoxicity against HEK293 cells assessed as cell viability by MTT assay; assay type: cell-based; conditions: human
[3] = AUC (0 to 24 hrs) in monkey plasma at 20 mg/kg, po administered as single dose by LC-MS/MS analysis; assay type: ADME, organism-based, Macaca mulatta; set-up: dose 20 mg/kg, time < 24 hr, route oral; conditions: rhesus monkey
[4] = Tmax in monkey PBMC assessed as 3TC-TP level at 20 mg/kg, po administered as single dose by LC-MS/MS analysis; assay type: ADME, organism-based, Macaca mulatta; conditions: rhesus monkey, in vivo
[5] = target: Virion infectivity factor (Human immunodeficiency virus type 1 group M subtype B (isolate NY5)(HIV-1)) (UniProt P12504); test: Inhibition of HIV1 HA-tagged Vif expressed in HEK293T cells co-expressing Myc-tagged pcDNA-APOBEC3G assessed as reduction in Vif-mediated A3G degradation at 10000 nM measured after 48 hrs by Western blot analysis; assay type: cell-based; conditions: Human immunodeficiency virus 1, HEK-293T
Sequence of Virion infectivity factor (Human immunodeficiency virus type 1 group M subtype B (isolate NY5)(HIV-1)) (P12504 whole entry): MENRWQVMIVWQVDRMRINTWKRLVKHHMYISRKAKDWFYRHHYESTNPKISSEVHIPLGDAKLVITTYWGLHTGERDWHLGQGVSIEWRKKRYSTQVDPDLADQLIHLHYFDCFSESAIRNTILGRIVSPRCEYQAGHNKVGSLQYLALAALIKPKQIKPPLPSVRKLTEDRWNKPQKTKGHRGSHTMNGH

[6] = Binding affinity to HIV1 Vif and CBFbeta-ELOB-ELOC complex (unknown origin) by CM5 chip based assay
[7] = target: Virion infectivity factor (Human immunodeficiency virus type 1 group M subtype B (isolate NY5)(HIV-1)) (UniProt P12504); test: Inhibition of HIV1 HA-tagged Vif expressed in HEK293T cells co-expressing eGFP-tagged pcDNA-APOBEC3G assessed as reduction in Vif-mediated A3G degradation at 10000 nM measured after 48 hrs by flow cytometry; assay type: cell-based; conditions: Human immunodeficiency virus 1, HEK-293T
[8] = AUC (0 to 24 hrs) in monkey PBMC assessed as 3TC-TP level at 20 mg/kg, po administered as single dose by LC-MS/MS analysis; assay type: ADME, organism-based, Macaca mulatta; set-up: time < 24 hr, dose 20 mg/kg, route oral; conditions: rhesus monkey, in vivo
[9] = tested on: Human immunodeficiency virus 1; test: (§1) Antiviral activity against JRFL pseudotyped HIV1 infected in human Hut/CCR5 cells assessed as time needed to reach 50% reduction of virus infection at 10000 nM incubated with cells for 4 hrs prior to compound washout followed by viral infection and measured after 72 hrs by luciferase reporter gene assay; assay type: functional
[10] = Cmax in monkey PBMC assessed as 3TC-TP level at 20 mg/kg, po administered as single dose by LC-MS/MS analysis; assay type: ADME, organism-based, Macaca mulatta; set-up: dose 20 mg/kg, route oral; conditions: rhesus monkey, in vivo
[11] = tested on: Human immunodeficiency virus 1; test: as §1, with “1000” for “10000”; assay type: functional
[12] = Tmax in monkey plasma at 20 mg/kg, po administered as single dose by LC-MS/MS analysis; assay type: ADME, organism-based, Macaca mulatta; conditions: rhesus monkey
[13] = Cytotoxicity against human Hut/CCR5 cells assessed as reduction in cell viability at 1000 to 10000 nM measured after 120 hrs by MTT assay; assay type: cell-based; conditions: 10 µM
[14] = Cmax in monkey plasma at 20 mg/kg, po administered as single dose measured after 72 hrs by LC-MS/MS analysis; assay type: ADME, organism-based, Macaca mulatta; set-up: dose 20 mg/kg, route oral; conditions: rhesus monkey
[15] = Cmax in monkey plasma at 20 mg/kg, po administered as single dose by LC-MS/MS analysis; assay type: ADME, organism-based, Macaca mulatta; set-up: dose 20 mg/kg, route oral; conditions: rhesus monkey
[16] = target: Virion infectivity factor (Human immunodeficiency virus type 1 group M subtype B (isolate NY5)(HIV-1)) (UniProt P12504); test: Inhibition of HIV1 HA-tagged Vif expressed in HEK293T cells co-expressing Myc-tagged pcDNA-APOBEC3G assessed as reduction in Vif-mediated A3G degradation at 10 uM measured after 16 hrs by Western blot analysis; assay type: cell-based; conditions: Human immunodeficiency virus 1, HEK-293T
[17] = target: Virion infectivity factor (Human immunodeficiency virus type 1 group M subtype B (isolate NY5)(HIV-1)) (UniProt P12504); test: Inhibition of HIV1 HA-tagged Vif expressed in HEK293T cells co-expressing Myc-tagged pcDNA-APOBEC3G and pcDNA-ubiquitin-His assessed as reduction in Vif-mediated A3G polyubiquitination at 10 uM measured after 16 hrs by Western blot analysis; assay type: cell-based; conditions: Human immunodeficiency virus 1, HEK-293T

Structure (SMILES)	EC50 [1] [µM]	CC50 [2] [µM]	also measured
CNc1ccn([C@@H]2O[C@@](CO)(N=[N+]=[N-])[C@@H](O)[C@@H]2F)c(=O)n1	6.7	≥ 25	–
[N-]=[N+]=N[C@]1(CO)O[C@@H](n2ccc(NO)nc2=O)[C@@H](F)[C@@H]1O	0.7	≥ 25	–
COc1ccc(Nc2ccn([C@@H]3O[C@@](CO)(N=[N+]=[N-])[C@@H](O)[C@@H]3F)c(=O)n2)c(OC)c1	5.2	≥ 25	–
[N-]=[N+]=N[C@]1(CO)O[C@@H](n2ccc(N3CCCC3)nc2=O)[C@@H](F)[C@@H]1O	> 10	–	–
CCNc1ccn([C@@H]2O[C@@](CO)(N=[N+]=[N-])[C@@H](O)[C@@H]2F)c(=O)n1	> 10	–	–
CONc1ccn([C@@H]2O[C@@](CO)(N=[N+]=[N-])[C@@H](O)[C@@H]2F)c(=O)n1	> 10	–	–
Nc1ccn([C@@H]2CS[C@H](CO)O2)c(=O)n1 [LAMIVUDINE]	0.3	≥ 25	AUC(0-t) at 24 h [3]: 395 µM·h; Tmax [4]: 1 h; inhibition [5]: inactive; Kd [6]: 1.51 µM; inhibition [7]: inactive; AUC [8]: 0.00013 µM·h; Time [9]: 42.7 to 42.74 h; Cmax [10]: 0.03 nM; Time [11]: 26.75 h; Tmax [12]: 1 h; Activity [13]: Non-Toxic; Cmax [14]: 93.6 nM; Cmax [15]: 31300 nM
[N-]=[N+]=N[C@]1(CO)O[C@@H](n2ccc(NCCc3ccc(O)cc3)nc2=O)[C@@H](F)[C@@H]1O	5.7	≥ 25	–
CCONc1ccn([C@@H]2O[C@@](CO)(N=[N+]=[N-])[C@@H](O)[C@@H]2F)c(=O)n1	> 10	–	–
[N-]=[N+]=N[C@]1(CO)O[C@@H](n2ccc(N(CCO)CCO)nc2=O)[C@@H](F)[C@@H]1O	0.8	≥ 25	–
[N-]=[N+]=N[C@]1(CO)O[C@@H](n2ccc(NCc3ccco3)nc2=O)[C@@H](F)[C@@H]1O	0.7	≥ 25	–
[N-]=[N+]=N[C@]1(CO)O[C@@H](n2ccc(NCCO)nc2=O)[C@@H](F)[C@@H]1O	> 10	–	–
[N-]=[N+]=N[C@]1(CO)O[C@@H](n2ccc(N3CCOCC3)nc2=O)[C@@H](F)[C@@H]1O	> 10	–	–
CC(C)C[C@@H](C=O)NC(=O)[C@H](CC(C)C)NC(=O)[C@H](CC(C)C)NC(=O)OCc1ccccc1 (Cbz-Leu-Leu-Leu-aldehyde)	–	–	inhibition [16]: Active; inhibition [17]: Active
CON(C)c1ccn([C@@H]2O[C@@](CO)(N=[N+]=[N-])[C@@H](O)[C@@H]2F)c(=O)n1	> 10	–	–
CN(C)c1ccn([C@@H]2O[C@@](CO)(N=[N+]=[N-])[C@@H](O)[C@@H]2F)c(=O)n1	13	≥ 25	–
[N-]=[N+]=N[C@]1(CO)O[C@@H](n2ccc(NCc3cccnc3)nc2=O)[C@@H](F)[C@@H]1O	1.3	≥ 25	–
[N-]=[N+]=N[C@]1(CO)O[C@@H](n2ccc(NC3CCCCC3)nc2=O)[C@@H](F)[C@@H]1O	> 10	–	–
CCN(CC)c1ccn([C@@H]2O[C@@](CO)(N=[N+]=[N-])[C@@H](O)[C@@H]2F)c(=O)n1	> 10	–	–
[N-]=[N+]=N[C@]1(CO)O[C@@H](n2ccc(NCCCO)nc2=O)[C@@H](F)[C@@H]1O	> 10	–	–
